# Peptide text beside a SMILES is read from it.
# Assays:
# [1] = molecular target: T1, Matrix metalloproteinase-9 (Homo sapiens, UniProt P14780); assay: Inhibition of human MMP9 measured at 5 mins interval for 1 hr by fluorescence method
# [2] = molecular target: T2, 72 kDa type IV collagenase (Homo sapiens, UniProt P08253); assay: Inhibition of human MMP2 measured at 5 mins interval for 1 hr by fluorescence method
# [3] = molecular target: T3, Matrix metalloproteinase-14 (Homo sapiens, UniProt P50281); assay: Inhibition of human MT1-MMP using 3163v as substrate preincubated for 15 mins followed by substrate addition and measured after 40 mins by fluorometric method
# Matrilysin = molecular target: T4, Matrilysin (Homo sapiens, UniProt P09237); assay: Inhibition of human MMP7 using 3163v as substrate preincubated for 15 mins followed by substrate addition and measured after 40 mins by fluorometric method
# T4 sequence (P09237 whole entry): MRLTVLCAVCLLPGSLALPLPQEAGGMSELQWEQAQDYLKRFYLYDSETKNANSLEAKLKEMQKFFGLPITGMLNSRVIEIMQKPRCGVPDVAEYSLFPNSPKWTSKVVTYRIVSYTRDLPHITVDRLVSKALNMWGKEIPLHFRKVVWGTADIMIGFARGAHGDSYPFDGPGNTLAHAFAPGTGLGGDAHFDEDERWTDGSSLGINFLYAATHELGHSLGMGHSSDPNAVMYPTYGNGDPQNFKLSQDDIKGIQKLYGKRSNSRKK
# Stromelysin-1 = Stromelysin-1 (Homo sapiens, UniProt P08254); assay: Inhibition of MMP3 (unknown origin) using 3168v as substrate preincubated for 15 mins followed by substrate addition and measured after 40 mins by fluorometric method
# Sequence of Stromelysin-1 (P08254 whole entry): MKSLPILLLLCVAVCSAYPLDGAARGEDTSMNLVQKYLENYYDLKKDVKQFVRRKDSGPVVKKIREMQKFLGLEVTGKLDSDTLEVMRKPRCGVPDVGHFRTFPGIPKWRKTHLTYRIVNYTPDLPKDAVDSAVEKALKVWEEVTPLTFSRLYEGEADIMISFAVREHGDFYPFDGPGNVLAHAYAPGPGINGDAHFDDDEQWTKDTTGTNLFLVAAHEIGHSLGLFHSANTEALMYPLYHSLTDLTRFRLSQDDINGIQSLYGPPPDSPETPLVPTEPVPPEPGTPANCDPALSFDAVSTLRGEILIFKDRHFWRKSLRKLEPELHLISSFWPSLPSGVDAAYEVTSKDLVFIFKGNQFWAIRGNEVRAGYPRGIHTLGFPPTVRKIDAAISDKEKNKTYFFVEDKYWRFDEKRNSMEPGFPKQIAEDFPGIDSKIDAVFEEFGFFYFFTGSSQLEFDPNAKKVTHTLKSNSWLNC
# [4] = molecular target: T2, 72 kDa type IV collagenase; assay: Inhibition of MMP2 (unknown origin) using 3163v as substrate preincubated for 15 mins followed by substrate addition and measured after 40 mins by fluorometric method
# [5] = molecular target: T1, Matrix metalloproteinase-9; assay: Inhibition of human MMP9 using 3163v as substrate preincubated for 15 mins followed by substrate addition and measured after 40 mins by fluorometric method
# [6] = molecular target: T3, Matrix metalloproteinase-14; assay: Inhibition of MT1-MMP catalytic domain (unknown origin) expressed in Escherichia coli using 7-methoxycoumarin-4-yl)acetyl-Pro-Leu-Gly-Leu-(3-[2,4-dinitrophenyl]-L-2,3-diaminopropionyl)-Ala-Arg-NH2 as substrate incubated for 30 mins by fluorescence method
# [7] = molecular target: Macrophage metalloelastase (Homo sapiens, UniProt P39900); assay: Inhibition of recombinant human MMP12 using Mca-Pro-Leu-Gly-Leu-Dpa-Ala-Arg-NH2 as substrate by […] method
# Sequence of Macrophage metalloelastase (P39900 whole entry): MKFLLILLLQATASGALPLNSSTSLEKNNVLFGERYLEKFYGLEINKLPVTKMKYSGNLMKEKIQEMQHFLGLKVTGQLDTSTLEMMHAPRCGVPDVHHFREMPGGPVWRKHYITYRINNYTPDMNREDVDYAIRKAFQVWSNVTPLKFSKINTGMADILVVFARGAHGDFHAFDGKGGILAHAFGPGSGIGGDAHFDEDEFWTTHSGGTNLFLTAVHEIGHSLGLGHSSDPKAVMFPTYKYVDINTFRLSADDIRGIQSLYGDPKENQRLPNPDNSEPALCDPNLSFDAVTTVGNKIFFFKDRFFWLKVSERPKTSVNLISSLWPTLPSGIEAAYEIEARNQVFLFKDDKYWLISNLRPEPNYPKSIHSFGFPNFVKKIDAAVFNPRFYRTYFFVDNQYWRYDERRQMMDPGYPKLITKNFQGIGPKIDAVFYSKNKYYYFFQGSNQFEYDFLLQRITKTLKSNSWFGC
# T2 sequence (P08253 whole entry): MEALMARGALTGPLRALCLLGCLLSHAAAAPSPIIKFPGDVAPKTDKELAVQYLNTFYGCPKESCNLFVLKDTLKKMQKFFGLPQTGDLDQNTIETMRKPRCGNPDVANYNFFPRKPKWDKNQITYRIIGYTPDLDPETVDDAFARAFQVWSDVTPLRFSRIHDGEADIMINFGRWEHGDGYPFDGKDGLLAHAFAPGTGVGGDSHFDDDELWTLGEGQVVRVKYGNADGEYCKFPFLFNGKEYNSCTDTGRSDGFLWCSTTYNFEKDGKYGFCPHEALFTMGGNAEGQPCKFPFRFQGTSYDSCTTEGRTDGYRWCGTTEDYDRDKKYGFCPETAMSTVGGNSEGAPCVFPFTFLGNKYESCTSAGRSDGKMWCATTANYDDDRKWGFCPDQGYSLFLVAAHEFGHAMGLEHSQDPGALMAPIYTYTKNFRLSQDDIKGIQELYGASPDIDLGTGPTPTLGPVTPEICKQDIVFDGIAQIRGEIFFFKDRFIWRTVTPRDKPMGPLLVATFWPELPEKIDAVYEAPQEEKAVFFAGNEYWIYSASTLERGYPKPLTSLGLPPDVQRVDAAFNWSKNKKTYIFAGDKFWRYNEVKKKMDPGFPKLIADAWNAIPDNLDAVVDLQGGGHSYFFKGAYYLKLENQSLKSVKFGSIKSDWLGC
# T1 sequence (P14780 whole entry): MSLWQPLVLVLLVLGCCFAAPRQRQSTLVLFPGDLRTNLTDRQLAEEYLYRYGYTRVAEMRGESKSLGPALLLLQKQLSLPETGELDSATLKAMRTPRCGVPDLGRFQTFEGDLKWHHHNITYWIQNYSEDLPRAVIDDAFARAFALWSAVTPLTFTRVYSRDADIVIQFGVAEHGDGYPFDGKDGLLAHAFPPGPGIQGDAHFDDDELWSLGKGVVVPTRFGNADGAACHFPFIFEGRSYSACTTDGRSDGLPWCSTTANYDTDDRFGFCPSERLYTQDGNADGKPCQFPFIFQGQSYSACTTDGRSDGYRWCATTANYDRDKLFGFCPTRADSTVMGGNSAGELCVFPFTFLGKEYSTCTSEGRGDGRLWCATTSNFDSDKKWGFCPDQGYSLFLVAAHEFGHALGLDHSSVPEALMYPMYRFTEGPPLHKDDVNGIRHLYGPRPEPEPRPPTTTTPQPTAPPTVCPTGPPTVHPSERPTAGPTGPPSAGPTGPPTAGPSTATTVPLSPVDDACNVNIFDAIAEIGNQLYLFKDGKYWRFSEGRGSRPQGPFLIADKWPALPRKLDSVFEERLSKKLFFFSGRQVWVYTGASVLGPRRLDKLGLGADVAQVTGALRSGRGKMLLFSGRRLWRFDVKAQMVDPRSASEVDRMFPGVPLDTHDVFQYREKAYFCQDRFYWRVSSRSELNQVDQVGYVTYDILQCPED
smiles,measurement,setting,value
CCCCCC(=O)N1CC(F)(F)C[C@@H]1C(=O)N(C)[C@H](C(=O)N[C@@H](CCNC(=O)c1ccccc1)C(=O)NO)[C@@H](C)CC,IC50,[1],310 nM
same,IC50,[2],656 nM
CC[C@H](C)[C@H](N)C(=O)N[C@@H](CO)C(=O)N[C@@H](Cc1ccc(O)cc1)C(=O)NCC(=O)N[C@@H](CC(N)=O)C(=O)N[C@@H](CC(=O)O)C(=O)N[C@@H](C)C(=O)N[C@@H](CC(C)C)C(=O)N[C@@H](CCSC)C(=O)N1CCC[C@H]1C(=O)O (H-ISYGNDALMP-OH),IC50,[3],2000 nM
same,IC50,Matrilysin,> 10000 nM
same,IC50,Stromelysin-1,> 10000 nM
same,IC50,[4],30 nM
same,IC50,[5],> 10000 nM
CCCC(C)NC(=O)c1ccc(Cl)c(Cl)c1 (centres undefined),IC50,[6],> 100000 nM
NC(=O)[C@H](CCC(=O)O)NC(=O)c1ccc(-c2cc(-c3ccccc3)cs2)cc1,IC50,[7],2.5 nM
